Patent publication US12605353B2, “PDIA4 inhibitors and use thereof for inhibiting β-cell pathogenesis and treating diabetes” (Academia Sinica, priority 2019, dated 2026)
pEC50, pIC50: −log10 of the molar value. Read-outs that look alike come from different tables or passages of the source.

What was measured:
[1] = tested on: Min6 cells; assay: Glucose-stimulated insulin secretion in Min6 cells (insulin ELISA); format: cell-based, mouse; settings: for insulin secretion in β-cells, in words: Min6 β-cells
Protocol: (§1) (A) Effect of drug candidates on insulin secretion in β-cells. Min6 cells were incubated in serum-free oxygen-saturated Krebs-Ringer bicarbonate (KRB) buffer containing high glucose (16.7 mM), CCF642 and drug candidates for 30 min. The supernatants were collected for insulin ELISA assay. (B) Min6 cells were incubated with PBS, CCF642 and drug candidates, respectively, for 24 h. Following PBS washing, WST-1 was added into each well for additional 20 min incubation.
Min6 cells were grown in complete Dulbecco's modified Eagle medium (DMEM) medium containing 10% fetal bovine serum, 100 units/ml penicillin and 100 µg/ml streptomycin in a 5% CO2 incubator in the presence of 3.3 mM glucose unless indicated otherwise. Min6 cells were pre-incubated in serum-free oxygen-saturated Krebs-Ringer bicarbonate (KRB) buffer containing 3.3 mM glucose at 37° C. for 30 min. The cells (7.5×10^4) were then incubated with KRB buffer containing high glucose (16.7 mM) or low glucose (3.3 mM) for an additional 30 min. The supernatants were collected for insulin ELISA assay.

[2] = tested on: Min6 cells; assay: Cell viability test (WST-1) in Min6 cells; format: cell-based, mouse
Protocol: as §1
(§2) Min6 cells were cultured at 37° C. in complete medium. Cell cytotoxicity was determined using WST-1 (4-[3-(4-Iodophenyl)-2-(4-nitrophenyl)-2H-5-tetrazolio]-1,3-benzene Disulfonate) according to the manutkturet's guidelines. Briefly, the cells were grown in a […] containing complete medium in the presence of the indicated compounds for 24 h. Following PBS washing, WST-1 was added into each well for additional 20 min incubation. After removing the medium, the cells in the plate were measured with a SpectraMax i3x reader at 450 nm.

[3] = Cell viability test (WST-1) in Min6 cells; format: cell-based, mouse; settings: mouse
Protocol: as §1, §2

[4] = molecular target: T1, PDIA4 (Homo sapiens, UniProt P13667); assay: biochemical;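 note: enzymatic activity of PDIA4 read as absorbance at 595 nm, inhibition given as percent decrease relative to vehicle-treated control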
T1 sequence (P13667 21-645): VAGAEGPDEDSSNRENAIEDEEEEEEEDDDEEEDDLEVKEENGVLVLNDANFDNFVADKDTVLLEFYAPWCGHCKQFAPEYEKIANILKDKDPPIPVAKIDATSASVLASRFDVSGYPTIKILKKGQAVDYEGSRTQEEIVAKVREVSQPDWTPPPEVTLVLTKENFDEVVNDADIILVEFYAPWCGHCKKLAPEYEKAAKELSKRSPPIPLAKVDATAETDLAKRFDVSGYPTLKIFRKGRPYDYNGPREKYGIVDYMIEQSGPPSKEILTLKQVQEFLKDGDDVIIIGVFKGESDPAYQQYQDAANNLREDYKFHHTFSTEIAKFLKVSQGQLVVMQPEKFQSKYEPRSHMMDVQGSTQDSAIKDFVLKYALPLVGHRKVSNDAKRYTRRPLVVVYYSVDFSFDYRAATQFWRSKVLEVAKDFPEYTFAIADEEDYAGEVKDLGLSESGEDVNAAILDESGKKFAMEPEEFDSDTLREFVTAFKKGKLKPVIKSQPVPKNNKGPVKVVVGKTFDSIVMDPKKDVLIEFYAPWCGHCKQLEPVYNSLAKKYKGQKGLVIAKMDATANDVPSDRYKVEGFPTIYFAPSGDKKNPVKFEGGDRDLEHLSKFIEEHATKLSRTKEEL
Protocol: Recombinant PDI proteins PDIA4 (23 pM) was incubated with insulin (0.2 mM) and DTT (0.1 mM) in the presence of vehicle and compounds at the indicated doses for 30 min at 25° C. The mixture was, measured using a SpectraMax i3x reader at 595 nm based on the manufacturer's instructions (Molecular device, CA, USA). Inhibition of the enzymatic activity PDIA4 is calculated by the formula, 100%×(OD595 of vehicle−OD595 of CP)/(OD595 of vehicle) as published previously.

[5] = tested on: db/db mice; assay: Anti-diabetes effect in db/db mice (blood glucose); format: in vivo, mouse; settings: CPD 8 2.5 mg/kg, metformin 60 mg/kg; for fasting blood glucose (FBG) / postprandial blood glucose (PBG): sitagliptin 30 mg/kg
Protocol: (A-B) New-onset diabetes, Lepr^db/db mice, are grouped and treated with PBS vehicle (CTR), sitagliptin (STG, 30 Mg/kg), CPD8 (2.5 mg/kg), and a combination of CPD8 (2.5 mg/kg) and metformin […]) (CPD8+Met) for the indicated time. Fasting blood glucose (FBG (A)) and postprandial blood glucose (PBG (B)) of the mice were monitored. The value (n) is number of mice indicated in parentheses.
Moreover, we examined the in vivo anti-diabetes effect of CPD 8, one of drug candidates for Pdia4 inhibition, in db/db mice, a mouse model of type 2 diabetes. […] PBG in db/db mice (FIG. 4B).

[6] = Min6, a mouse β-cells, read-out: EC50 values, insulin-releasing action
[7] = Table 5, 24 h, WST-1, read-out: CC50
[8] = Mus musculus, 0.5 h, Table 5, insulin secretion, Min6 cells, high glucose (16.7 mM), 30 min, read-out: EC50

**Q.** With COc1ccc(N2C(=O)/C(=C\c3ccc([N+](=O)[O-])s3)SC2=S)cc1 [CCF642, reference compound] as the compound, how does the pEC50 [1, 6] read?
**A.** 6.60

**Q.** And the “insulin secretion in β-cells, in words” value [1]?
**A.** could augment insulin secretion

**Q.** And the “SI (CC50/EC50)” value ([1]; Table 5, Min6 cells)?
**A.** 95.6

**Q.** What about the CC50 [2, 7] of the same compound?
**A.** 23900 nM

**Q.** And the CC50 ([2]; read-out: CC50 values)?
**A.** 23900 nM

**Q.** With C#CC(=O)Nc1cc(OC)c(OCCCN(C(=O)C#C)C(=O)c2cnco2)cc1C(=O)OC [58v, methyl 4-methoxy-2-propiolamido-5-(3-(N-propioloyloxazole-5-carboxamido)propoxy)benzoate] as the compound, how does the pEC50 [1, 6] read?
**A.** 8.30

**Q.** And the “insulin secretion in β-cells, in words” value [1]?
**A.** could augment insulin secretion

**Q.** And the pEC50 [1, 8]?
**A.** 8.30

**Q.** And the “SI (CC50/EC50)” value ([1]; Table 5, Min6 cells)?
**A.** >20000

**Q.** What about the CC50 at 24 h [3, 7] of the same compound?
**A.** > 100000 nM

**Q.** And the CC50 at 24 h ([3]; read-out: CC50 values)?
**A.** > 100000 nM

**Q.** And the pIC50 [4]?
**A.** 6.52

**Q.** Which “fasting blood glucose (FBG)” value [5] does the source give for N[C@@H](CC(=O)N1CCn2c(nnc2C(F)(F)F)C1)Cc1cc(F)c(F)cc1F [sitagliptin, reference compound] here?
**A.** significantly reduced

**Q.** What about the “postprandial blood glucose (PBG)” value [5] of the same compound?
**A.** significantly reduced

**Q.** With C#CC(=O)Nc1cc(OC)c(OC)cc1C(=O)O [CPD 8, 4,5-dimethoxy-2-propiolamidobenzoic acid] as the compound, how does the pEC50 [1, 6] read?
**A.** 7.22

**Q.** And the “insulin secretion in β-cells, in words” value [1]?
**A.** could augment insulin secretion

**Q.** What about the pEC50 [1, 8] of the same compound?
**A.** 7.22

**Q.** What about the “SI (CC50/EC50)” value ([1]; Table 5, Min6 cells) of the same compound?
**A.** >1666.7

**Q.** And the CC50 at 24 h [3, 7]?
**A.** > 100000 nM

**Q.** What about the CC50 at 24 h ([3]; read-out: CC50 values) of the same compound?
**A.** > 100000 nM

**Q.** And the “reversal of type 2 diabetes” value [5]?
**A.** can reverse type 2 diabetes

**Q.** And the “fasting blood glucose (FBG)” value [5]?
**A.** significantly decreased

**Q.** And the “postprandial blood glucose (PBG)” value [5]?
**A.** significantly decreased

**Q.** What about the pIC50 [4] of the same compound?
**A.** 5.40

**Q.** With CC#CC#CC#CC#CCCC(CO)O[C@@H]1O[C@H](CO)[C@@H](O)[C@H](O)[C@H]1O (stereo partly shown) [CPD P1, cytopiloyne, reference compound] as the compound, how does the pEC50 [1, 6] read?
**A.** 5.81

**Q.** And the “insulin secretion in β-cells, in words” value [1]?
**A.** could augment insulin secretion

**Q.** And the pEC50 [1, 8]?
**A.** 5.81

**Q.** And the “SI (CC50/EC50)” value ([1]; Table 5, Min6 cells)?
**A.** >64.5

**Q.** And the CC50 at 24 h [3, 7]?
**A.** > 100000 nM

**Q.** And the CC50 at 24 h ([3]; read-out: CC50 values)?
**A.** > 100000 nM

**Q.** What about the pIC50 [4] of the same compound?
**A.** 3.68
